We go through 13 molecules from patent US20030232986A1, “Inhibitors of caspases” (Vertex Pharmaceuticals Incorporated, priority 1998, published 2003).

Test [1] concerns Human whole blood, IL-1β production. Kind of test: Whole blood assay for IL-1β production. The class given is cell-based. The note with it: LPS-stimulated whole blood, IL-1β by ELISA. The method, then: The whole blood assay is a simple method for measuring the production of IL-1β (or other cytokines) and the activity of potential inhibitors. The complexity of this assay system, with its full complement of lymphoid and inflammatory cell types, spectrum of plasma proteins and red blood cells is an ideal in vitro representation of human in vivo physiologic conditions.
Set incubator or water bath at 30° C. Aliquot 0.25 ml of blood into 1.5 ml eppendorf tubes. Note: be sure to invert the whole blood sample tubes after every two aliquots. Differences in replicates may result if the cells sediment and are not uniformly suspended. Use of a positive displacement pipette will also minimize differences between replicate aliquots.
Prepare drug dilutions in sterile pyrogen-free saline by serial dilution. A dilution series which brackets the apparent Ki for a test compound determined in an ICE inhibition assay is generally used for the primary compound screen. For extremely hydrophobic compounds, prepare compound dilutions in fresh plasma obtained from the same blood donor or in PBS-containing 5% DMSO to enhance solubility.
Add 25 μl test compound dilution or vehicle control and gently mix the sample. Then add 5.0 μl LPS solution (250 ng/ml stocked prepared fresh: 5.0 ng/ml final concentration LPS), and mix again. Incubate the tubes at […] in a water bath for 16-18 hr with occasional mixing. Alternatively, the tubes can be placed in a rotator set at 4 rpm for the same incubation period. This assay should be set up in duplicate or triplicate with the following controls: negative control—no LPS; positive control—no test inhibitor; vehicle control—the highest concentration of DMSO or compound solvent used in the experiment. Additional saline is added to all control tubes to normalize volumes for both control and experimental whole blood test samples.
After the incubation period, whole blood samples are centrifuged for 10 minutes at ^˜2000 rpm in the microfuge, plasma is transferred to a fresh microfuge tube and centrifuged at 1000×g to pellet residual platelets if necessary. Plasma samples may be stored frozen at −70° C. prior to assay for cytokine levels by ELISA.
R & D Systems (614 McKinley Place N.E. Minneapolis, Minn. 55413) Quantikine kits may be used for measurement of IL-1β and TNF-α. The assays are performed according to the manufacture's directions. IL-1β levels of ^˜1-5 ng/ml in positive controls among a range of individuals may be observed. A 1:200 dilution of plasma for all samples is usually sufficient for experiments for ELISA results to fall on the linear range of the ELISA standard curves. It may be necessary to optimize standard dilutions if you observe differences in the whole blood assay. Nerad, J. L. et al., J. Leukocyte Biol., 52, pp. 687-692 (1992).

For test [2], the system named is Human Peripheral Blood Mononuclear Cells (PBMC), mature IL-1β. Kind of test: PBMC cell assay: IL-1β assay with human peripheral blood mononuclear cells. The class given is cell-based. The note with it: LPS-stimulated human PBMC, mature IL-1β in supernatant by ELISA. The source says:
IL-1β Assay with a Mixed Population of Human Peripheral Blood Mononuclear Cells (PBMC) or Enriched Adherent Mononuclear Cells
Processing of pre-IL-1β by ICE can be measured in cell culture using a variety of cell sources. Human PBMC obtained from healthy donors provides a mixed population of lymphocyte subtypes and mononuclear cells that produce a spectrum of interleukins and cytokines in response to many classes of physiological stimulators. Adherent mononuclear cells from PBMC provides an enriched source of normal monocytes for selective studies of cytokine production by activated cells.
An initial dilution series of test compound in DMSO or ethanol is prepared, with a subsequent dilution into RPMI-10% FBS media (containing 2 mM L-glutamine, 10 mM HEPES, 50 U and 50 ug/ml pen/strep) respectively to yield drugs at 4× the final test concentration containing 0.4% DMSO or 0.4% ethanol. The final concentration of DMSO is 0.1% for all drug dilutions. A concentration titration which brackets the apparent Ki for a test compound determined in an ICE inhibition assay is generally used for the primary compound screen.
Generally 5-6 compound dilutions are tested and the cellular component of the assay is performed in duplicate, with duplicate ELISA determinations on each cell culture supernatant.
Buffy coat cells isolated from one pint human blood (yielding 40-45 ml final volume plasma plus cells) are diluted with media to 80 ml and LeukoPREP separation tubes (Becton Dickinson) are each overlaid with 10 ml of cell suspension. After 15 min centrifugation at 1500-1800×g, the plasma/media layer is aspirated and then the mononuclear cell layer is collected with a Pasteur pipette and transferred to a 15 ml conical centrifuge tube (Corning). Media is added to bring the volume to 15 ml, gently mix the cells by inversion and centrifuge at 300×g for 15 min. The PBMC pellet is resuspended in a small volume of media, the cells are counted and adjusted to 6×10^6 cells/ml.
For the cellular assay, 1.0 ml of the cell suspension is added to each well of a 24-well flat bottom tissue culture plate (Corning), 0.5 ml test compound dilution and 0.5 ml LPS solution (Sigma #L-3012; 20 ng/ml solution prepared in complete RPMI media; final LPS concentration 5 ng/ml). The 0.5 ml additions of test compound and LPS are usually sufficient to mix the contents of the wells. Three control mixtures are run per experiment, with either LPS alone, solvent vehicle control, and/or additional media to adjust the final culture volume to 2.0 ml. The cell cultures are incubated for 16-18 hr at 37° C. in the presence of 5% CO2.
At the end of the incubation period, cells are harvested and transferred to 15 ml conical centrifuge tubes. After centrifugation for 10 min at 200×g, supernatants are harvested and transferred to 1.5 ml Eppendorf tubes. It may be noted that the cell pellet may be utilized for a biochemical evaluation of pre-IL-1β and/or mature IL-1β content in cytosol extracts by Western blotting or ELISA with pre-IL-1β specific antisera.
PBMC are isolated and prepared as described above. Media (1.0 ml) is first added to wells followed by 0.5 ml of the PBMC suspension. After a one hour incubation, plates are gently shaken and nonadherent cells aspirated from each well. Wells are then gently washed three times with 1.0 ml of media and final resuspended in 1.0 ml media. The enrichment for adherent cells generally yields 2.5-3.0×10^5 cells per well. The addition of test compounds, LPS, cell incubation conditions and processing of supernatants proceeds as described above.
Quantikine kits (R&D Systems) may be used for the measurement of mature IL-1β. Assays are performed according to the manufacturer's directions. Mature IL-1β levels of about 1-3 ng/ml in both PBMC and adherent mononuclear cell positive controls are observed. […]

The target of another test is T1, Caspase-1 (Homo sapiens, UniProt P29466).
T1 sequence (P29466 120-297 limits assumed): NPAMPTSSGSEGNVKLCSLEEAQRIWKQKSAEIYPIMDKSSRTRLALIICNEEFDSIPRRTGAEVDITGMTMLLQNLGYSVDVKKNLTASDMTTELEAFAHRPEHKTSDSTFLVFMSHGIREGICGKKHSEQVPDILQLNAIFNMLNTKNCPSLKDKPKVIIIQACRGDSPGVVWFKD
T1 sequence (P29466 317-404 limits assumed): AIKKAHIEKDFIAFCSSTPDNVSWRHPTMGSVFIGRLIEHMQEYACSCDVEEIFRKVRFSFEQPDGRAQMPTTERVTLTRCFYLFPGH
Kind of test: Caspase-1 enzyme inhibition (Ki). In kind it is biochemical. Put shortly: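 Ki obtained by fitting rate versus inhibitor concentration to the Morrison tight-binding equation for competitive inhibitors, with pNA release read at 405 nm at 37 °C. Substrate Suc-YVAD-pNA (80 μM final) added after 15 min enzyme–inhibitor preincubation in Tris pH 7.5 buffer with DTT and CHAPS.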

Setting [3] is: substrate Suc-YVAD-pNA 80 μM, 37° C., pH 7.5.

Where two headings read alike, the source gives them in different places.

In the case of `C[C@H](NC(=O)[C@@H](NC(=O)c1cccc2ccccc12)C(C)(C)C)C(=O)N[C@H](C=O)CC(=O)O` [Example 29k], the values for the IC50 in test [1] and in test [2] were < 2500 nM and < 500 nM, respectively. For the same molecule, on Caspase-1 (setting [3]), the Ki (usually the equilibrium dissociation constant of an inhibitor or competing ligand from its target) is < 10 nM.
For `Cc1cc(C(=O)N[C@@H](C)C(=O)N2CCC[C@H]2C(=O)N[C@H](C=O)CC(=O)O)ccc1N` [Example 7t], in that order: 2500 to 7500 nM, > 2000 nM and 10 to 1000 nM.
Take `C[C@H](NC(=O)c1ccc(N)c(C(F)(F)F)c1)C(=O)N1CCC[C@H]1C(=O)N[C@H](C=O)CC(=O)O` [Example 122l, 3-({1-[2-(4-Amino-3-trifluoromethyl-benzoylamino)-propionyl]-pyrrolidine-2-carbonyl}-amino)-4-oxo-butyric acid]: the IC50 – broadly, the concentration that gives 50% inhibition – is < 2500 nM in test [1] and 500 to 1000 nM in test [2]. For the same molecule, the Ki on Caspase-1 (setting [3]) lay in the range of 10 to 1000 nM.
For `C[C@H](NC(=O)c1ccc(N(C)C)c2ccccc12)C(=O)N1CCC[C@H]1C(=O)N[C@H](C=O)CC(=O)O` [Example 7g], in that order: 2500 to 7500 nM, < 500 nM and < 10 nM.
For `C[C@H](NC(=O)c1nccc2ccccc12)C(=O)N[C@@H](C)C(=O)N[C@H](C=O)CC(=O)O` [Example 29c], the IC50 in test [1] was < 2500 nM; in test [2], 500 to 1000 nM. Moreover, the Ki on Caspase-1 (setting [3]) was < 10 nM.
On to `C[C@H](NC(=O)c1ccc(N)c(Cl)c1)C(=O)N1CCNC[C@H]1C(=O)N[C@H](C=O)CC(=O)O` [Example 16b], for which the IC50 in test [1] was < 2500 nM; in test [2], 1000 to 2000 nM. The Ki on Caspase-1 (setting [3]) was < 10 nM.
With `CC(C)[C@H](NC(=O)c1ccc2c(c1)C(=O)c1ccccc1-2)C(=O)N1CCC[C@H]1C(=O)N[C@H](C=O)CC(=O)O` [Example 5bb], the results for the IC50 in test [1] and in test [2] were 2500 to 7500 nM and 500 to 1000 nM, respectively. In addition, the Ki on Caspase-1 (setting [3]) is < 10 nM.
On the same counts, the results for `COCC(=O)N1CCN(C(=O)[C@H](C)NC(=O)c2nccc3ccccc23)[C@H](C(=O)N[C@H](C=O)CC(=O)O)C1` [Example 18a] are < 2500 nM, 500 to 1000 nM and 10 to 1000 nM.
On the same counts, the results for `COc1ccc(C(=O)N[C@@H](C)C(=O)N2CCC[C@H]2C(=O)N[C@H](C=O)CC(=O)O)cc1OCc1ccccc1` [Example 122i, 3-({1-[2-(3-benzyloxy-4-methoxy-benzoylamino)-propionyl]-pyrrolidine-2-carbonyl}-amino)-4-oxo-butyric acid] are < 2500 nM, 1000 to 2000 nM and < 10 nM.
For `CC(C)NC(=O)N[C@@H]1C[C@@H](C(=O)N[C@H](C=O)CC(=O)O)N(C(=O)[C@@H](NC(=O)c2nccc3ccccc23)C(C)C)C1` [Example 9c], in that order: < 2500 nM, < 500 nM and < 10 nM.
For `CC(C)[C@H](NC(=O)c1cccc2c1-c1ccccc1C2)C(=O)N1CCC[C@H]1C(=O)N[C@H](C=O)CC(=O)O` [Example 5i], the IC50 was > 7500 nM in test [1] and 1000 to 2000 nM in test [2]. For the same molecule, the Ki at Caspase-1 and on Caspase-1 (setting [3]) was < 10 nM each time.
Regarding `CC(C)[C@H](NC(=O)c1nccc2ccccc12)C(=O)N1CSC(C)(C)[C@H]1C(=O)N[C@H](C=O)CC(=O)O` [Example 28c], the IC50 in test [1] was > 7500 nM; in test [2], 500 to 1000 nM. Moreover, the Ki on Caspase-1 (setting [3]) was < 10 nM.
With `CS(=O)(=O)CC[C@H](NC(=O)c1cc(Cl)c(O)c(Cl)c1)C(=O)N1CCC[C@H]1C(=O)N[C@H](C=O)CC(=O)O` [Example 20p, 3-({1-[2-(3,5-dichloro-4-hydroxy-benizoylamino)-4-methanesulfonyl-butyryl]-pyrrolidine-2-carbonyl}-amino)-4-oxo-butyric acid], the 50% inhibitory concentration (IC50) in test [1] is < 2500 nM; in test [2], < 500 nM. The Ki on Caspase-1 (setting [3]) is < 10 nM.
